# Data published in US20240360151A1 (SANOFI, priority 2023, published 2024).
# What was measured:
# [1] = system: NF-kB pathway (TNF-α secretion by THP-1 cells); experiment: TNF-α secretion assay in LPS-stimulated THP-1 cells, Lumit immunoassay; assay type: cell-based, human; conditions: Homo sapiens, THP-1, 3 h, monocytic THP-1 cells, LPS 10 ng/mL, relative IC50, 10 concentrations, geometric mean
# How it was run: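 TNF-α release was quantified directly in the cell plate by Lumit immunoassay after a 3-h, 10 ng/mL LPS trigger of compound-treated THP-1 cells (RPMI, 5% FBS). Percent inhibition versus no-compound and unstimulated controls fed a 4-parameter logistic fit over 10 concentrations, giving geometric-mean relative IC50.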
# NLRP3 inflammasome = biological target: T1, NLRP3 inflammasome (Homo sapiens, UniProt Q96P20); experiment: IL-1β secretion assay (NLRP3 IC50) in LPS-primed, nigericin-activated THP-1 cells, HTRF; assay type: cell-based; conditions: monocytic THP-1 cells; LPS 10 ng/mL 3 h priming, then compound + nigericin 10 μM 2 h; relative IC50, 10 concentrations, geometric mean
# T1 construct: endogenous in cells; host or cells: THP-1 monocytic cells
# How it was run: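 IL-1β in supernatant read by HTRF after 2 h co-incubation of compound (0.1% DMSO, 10 concentrations, 1:3 series) with nigericin at 10 μM final, following 3 h LPS (10 ng/mL) priming of THP-1 monocytes at 37° C. Inhibition normalised to unactivated and no-compound controls; geometric-mean relative IC50 from 4-parameter logistic model.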
# T1 sequence (Q96P20 whole entry): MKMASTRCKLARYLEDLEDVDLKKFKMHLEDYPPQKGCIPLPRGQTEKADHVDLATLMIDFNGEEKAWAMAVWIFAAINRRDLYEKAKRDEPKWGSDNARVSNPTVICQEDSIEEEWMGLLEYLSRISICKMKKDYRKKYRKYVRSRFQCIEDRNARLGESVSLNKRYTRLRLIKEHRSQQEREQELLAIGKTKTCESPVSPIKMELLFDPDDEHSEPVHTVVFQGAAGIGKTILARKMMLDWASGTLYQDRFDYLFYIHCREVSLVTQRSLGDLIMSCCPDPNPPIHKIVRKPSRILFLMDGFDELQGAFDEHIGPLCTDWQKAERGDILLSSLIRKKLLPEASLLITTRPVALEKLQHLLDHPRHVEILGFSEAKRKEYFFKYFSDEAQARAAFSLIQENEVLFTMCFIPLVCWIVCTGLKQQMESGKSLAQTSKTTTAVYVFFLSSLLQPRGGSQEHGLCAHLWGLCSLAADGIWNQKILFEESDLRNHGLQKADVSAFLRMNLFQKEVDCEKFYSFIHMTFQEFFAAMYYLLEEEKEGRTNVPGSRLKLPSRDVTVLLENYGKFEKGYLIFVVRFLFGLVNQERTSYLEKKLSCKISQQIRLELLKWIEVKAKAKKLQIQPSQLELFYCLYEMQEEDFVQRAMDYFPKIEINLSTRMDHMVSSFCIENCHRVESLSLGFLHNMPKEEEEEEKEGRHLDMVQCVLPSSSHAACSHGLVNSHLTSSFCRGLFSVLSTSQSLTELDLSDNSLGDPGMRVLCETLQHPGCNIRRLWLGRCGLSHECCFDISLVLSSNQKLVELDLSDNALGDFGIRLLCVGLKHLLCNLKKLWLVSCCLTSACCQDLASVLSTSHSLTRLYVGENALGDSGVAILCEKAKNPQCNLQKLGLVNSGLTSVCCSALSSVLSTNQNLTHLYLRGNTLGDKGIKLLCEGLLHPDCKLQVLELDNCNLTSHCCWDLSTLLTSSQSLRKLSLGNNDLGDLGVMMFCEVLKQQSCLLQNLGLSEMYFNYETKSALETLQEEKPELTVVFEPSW
IC50 [1] [nM],IC50 (NLRP3 inflammasome) [nM],Compound
> 10000,0.4,"Cc1ccc(-c2nnc(N3CC[C@H]4CCN(C)C[C@H]43)cc2C)c(O)c1 (single isomer, unassigned) [Example 375]"
> 10000,0.4,"Cc1cc(C)c(-c2ccc(N3CC[C@@H]4CCN(C)C[C@@H]43)nn2)c(O)c1 (single isomer, unassigned) [Example 384]"
> 10000,23,"CC(=O)N1CC[C@H]2OCCN(c3ccc(-c4c(C)cc(Cl)cc4O)nn3)[C@H]2C1 (single isomer, unassigned) [Example 397]"
> 10000,3,"Cc1cc(C(F)(F)F)cc(O)c1-c1ccc(N2CC[C@@H]3CCNC[C@@H]32)nn1 (single isomer, unassigned) [Example 407]"
> 10000,0.48,"CCc1cccc(O)c1-c1ccc(N2CC[C@H]3CCN(C)C[C@H]32)nn1 (single isomer, unassigned) [Example 423]"
> 10000,2,"CN1CC[C@H]2CCN(c3ccc(-c4c(O)cccc4C(F)(F)F)nn3)[C@H]2C1 (single isomer, unassigned) [Example 427]"
> 10000,< 0.36,"CCN1CC[C@H]2CCN(c3ccc(-c4c(C)cc(C(F)(F)F)cc4O)nn3)[C@H]2C1 (single isomer, unassigned) [Example 429]"
> 10000,17,"CC(=O)N1CC[C@@H]2OCCN(c3ccc(-c4c(C)cc(C(F)(F)F)cc4O)nn3)[C@@H]2C1 (stereo in doubt) [Example 398, 1-[(4aR,8aS)-4-[6-[2-hydroxy-6-methyl-4-(trifluoromethyl)phenyl]pyridazin-3-yl]-3,4a,5,7,8,8a-hexahydro-2H-pyrido[4,3-b][1,4]oxazin-6-yl]ethanone]"
> 10000,78,"CCN1CC[C@H]2CCN(c3ccc(-c4c(C)cc(C(F)(F)F)cc4O)nn3)[C@H]2C1 (stereo in doubt) [Example 406, 2-[6-[(3aS,7aR)-6-ethyl-3,3a,4,5,7,7a-hexahydro-2H-pyrrolo[2,3-c]pyridin-1-yl]pyridazin-3-yl]-3-methyl-5-(trifluoromethyl)phenol]"

# Continued, molecule first:
Compound,IC50 [1] [nM],IC50 (NLRP3 inflammasome) [nM]
"CCN1CC[C@H]2OCCN(c3ccc(-c4c(C)cc(Cl)cc4O)nn3)[C@H]2C1 (single isomer, unassigned) [Example 313]",> 10000,0.3
"Cc1cc(Cl)cc(O)c1-c1ccc(N2CCO[C@@H]3CCN(C)C[C@@H]32)nn1 (single isomer, unassigned) [Example 321]",> 10000,1
"Cc1cc(C(F)(F)F)cc(O)c1-c1ccc(N2CCO[C@H]3CCN(C)C[C@@H]32)nn1 (single isomer, unassigned) [Example 343]",> 10000,47
"Cc1cc(N2CC[C@@H]3CCN(C)C[C@@H]32)nnc1-c1ccc(C(F)(F)F)cc1O (single isomer, unassigned) [Example 366]",> 10000,25
"Cc1cc(N2CC[C@H]3CCN(C)C[C@H]32)nnc1-c1ccc(C(F)(F)F)cc1O (single isomer, unassigned) [Example 367]",> 10000,0.5
"Cc1ccc(-c2nnc(N3CC[C@@H]4CCN(C)C[C@@H]43)cc2C)c(O)c1 (single isomer, unassigned) [Example 374]",> 10000,42
"Cc1cccc(O)c1-c1ccc(N2CC[C@H]3CCN(C)C[C@H]32)nn1 (single isomer, unassigned) [Example 416]",> 10000,1
"Cc1cc(C)c(-c2ccc(N3CCC[C@]4(C3)C[C@H](O)C4)nn2)c(O)c1 (single isomer, unassigned; isomer 1) [Example 175, 6-[6-(2-hydroxy-4,6-dimethyl-phenyl)pyridazin-3-yl]-6-azaspiro[3.5]nonan-2-ol Isomer 1]",> 10000,522
"Cc1cc(C)c(-c2ccc(N3CCC[C@]4(C3)C[C@@H](O)C4)nn2)c(O)c1 (single isomer, unassigned; isomer 2) [Example 176, 6-[6-(2-hydroxy-4,6-dimethyl-phenyl)pyridazin-3-yl]-6-azaspiro[3.5]nonan-2-ol Isomer 2]",> 10000,250
"Cc1cc(C)c(-c2ccc(N3C[C@@H]4COC[C@H]4C3)nn2)c(O)c1 (stereo in doubt) [Example 207, 2-[6-[(3aR,6aR)-1,3,3a,4,6,6a-hexahydrofuro[3,4-c]pyrrol-5-yl]pyridazin-3-yl]-3,5-dimethyl-phenol]",3010,174
"Cc1cc(C)c(-c2ccc(N3CCC(O)CC3)nn2)c(O)c1 [Example 1, 1-[6-(2-hydroxy-4,6-dimethyl-phenyl)pyridazin-3-yl]piperidin-4-ol]",> 10000,407
"Cc1cc(C)c(-c2ccc(N3CCOC[C@H]3CO)nn2)c(O)c1 [Example 5, 2-[6-[(3R)-3-(hydroxymethyl)morpholin-4-yl]pyridazin-3-yl]-3,5-dimethyl-phenol]",> 10000,290
"Cc1cc(C)c(-c2ccc(N3CCOC[C@@H]3CO)nn2)c(O)c1 [Example 6, 2-[6-[(3S)-3-(hydroxymethyl)morpholin-4-yl]pyridazin-3-yl]-3,5-dimethyl-phenol]",> 10000,235
"Cc1cc(C)c(-c2ccc(N3CCO[C@H](CO)C3)nn2)c(O)c1 [Example 8, 2-[6-[(2S)-2-(hydroxymethyl)morpholin-4-yl]pyridazin-3-yl]-3,5-dimethyl-phenol]",> 10000,20
"Cc1cc(C)c(-c2ccc(N3CCO[C@@H](CO)C3)nn2)c(O)c1 [Example 9, 2-[6-[(2R)-2-(hydroxymethyl)morpholin-4-yl]pyridazin-3-yl]-3,5-dimethyl-phenol]",> 10000,113
"COC[C@H]1CCCN1c1ccc(-c2c(C)cc(C(F)(F)F)cc2O)nn1 [Example 14, 2-[6-[(2R)-2-(methoxymethyl)pyrrolidin-1-yl]pyridazin-3-yl]-3-methyl-5-(trifluoromethyl)phenol]",> 10000,605
"COC[C@@H]1CCCN1c1ccc(-c2c(C)cc(C(F)(F)F)cc2O)nn1 [Example 15, 2-[6-[(2S)-2-(methoxymethyl)pyrrolidin-1-yl]pyridazin-3-yl]-3-methyl-5-(trifluoromethyl)phenol]",> 10000,406
"Cc1cc(C(F)(F)F)cc(O)c1-c1ccc(N2CCO[C@H](CO)C2)nn1 [Example 16, 2-[6-[(2S)-2-(hydroxymethyl)morpholin-4-yl]pyridazin-3-yl]-3-methyl-5-(trifluoromethyl)phenol]",> 10000,25
"NC1(C2CCCN(c3ccc(-c4c(O)cc(Cl)cc4Cl)nn3)C2)CC1 (stereo not shown) [Example 17, 2-[6-[3-(1-aminocyclopropyl)-1-piperidyl]pyridazin-3-yl]-3,5-dichloro-phenol]",> 10000,473
"NC[C@@H]1CCCN(c2ccc(-c3c(O)cc(Cl)cc3Cl)nn2)C1 [Example 18, 2-[6-[(3S)-3-(aminomethyl)-1-piperidyl]pyridazin-3-yl]-3,5-dichloro-phenol]",> 10000,173
